According to patent publication US9249129B2, “Morpholino substituted urea derivatives as mTOR inhibitors” (CELLZOME LIMITED, priority 2010, dated 2016):
Read-outs that look alike come from different tables or passages of the source.

How the values were obtained:
Type in all cases: binding
PI3K delta (PI3Kd) = target: T1, PI3K delta (PI3Kd) (Homo sapiens, UniProt O00329); assay: kinobeads assay, PI3K delta (dot blot detection)
T1 construct: endogenous in cells; host or cells: Jurkat cells (ATCC TIB-152, clone E6-1), lysate
In short: (§1)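 Jurkat cell lysate (5 mg/mL protein) incubated 2 h in the cold with test compound (9-step 1:3 series) and immobilized phenylthiazole/phenylmorpholin-chromen ligand beads. Bead-bound kinases eluted, detected by specific antibody dot blot with infrared readout; IC50 from dose-response curves.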

PI3Kα = target: T2, PI3Kα (Homo sapiens, UniProt P42336); assay: kinobeads assay, PI3K alpha (dot blot detection); conditions: Table 4, read-out: Inhibition values (IC50) PI3Ka
T2 construct: endogenous in cells; host or cells: Jurkat cells (ATCC TIB-152) lysate, the only lysate described

mTOR = target: T3, mTOR (Homo sapiens, UniProt P42345); assay: mTOR kinobeads assay (dot blot detection)
T3 construct: endogenous in cells; host or cells: Jurkat cells (ATCC TIB-152, clone E6-1), lysate
In short: as §1

kinases (kinome) [1] = target: T4, kinases (kinome) (Homo sapiens, UniProt Q6PHR2); assay: kinobeads assay with mass spectrometry detection of kinases (kinase selectivity profile); conditions: ULK3 (Other), IPI00910978
T4 construct: determined in kinobeads assays with mass spectrometry detection of kinases as described previously; endogenous in cells; host or cells: cell lysate
T4 sequence (Q6PHR2 1-472): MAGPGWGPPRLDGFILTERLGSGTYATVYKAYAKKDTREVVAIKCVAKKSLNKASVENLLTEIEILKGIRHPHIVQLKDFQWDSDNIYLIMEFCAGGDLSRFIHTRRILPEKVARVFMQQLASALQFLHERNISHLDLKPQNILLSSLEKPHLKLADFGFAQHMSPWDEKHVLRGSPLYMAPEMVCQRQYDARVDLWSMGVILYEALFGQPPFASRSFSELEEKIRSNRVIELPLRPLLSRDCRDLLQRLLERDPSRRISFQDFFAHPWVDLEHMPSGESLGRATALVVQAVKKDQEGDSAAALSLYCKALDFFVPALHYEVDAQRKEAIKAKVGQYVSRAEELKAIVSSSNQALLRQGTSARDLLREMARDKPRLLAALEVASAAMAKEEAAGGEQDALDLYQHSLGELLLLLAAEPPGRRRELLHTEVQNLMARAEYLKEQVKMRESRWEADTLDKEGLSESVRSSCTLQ
Source text: (§2) The protein kinase complement of the human genome (the kinome) was described previously (Manning et al., 2002. Science 298(5600):1912-1934). Sequence accession numbers are defined by the International Protein Index (IPI) (Kersey et al., 2004. Proteomics 4(7):1985-1988).

kinases (kinome) [2] = target: T5, kinases (kinome) (Homo sapiens, UniProt P45984); assay: as above; conditions: JNK2 (CMGC), IPI00303550
T5 construct: determined in kinobeads assays with mass spectrometry detection of kinases as described previously; endogenous in cells; host or cells: cell lysate
Source text: as §2

[3] = Table 2, Jurkat cell lysate, read-out: Inhibition values (IC50) PI3Kd
[4] = Table 4, read-out: Inhibition values (IC50) PI3Kd
[5] = Table 2, Jurkat cell lysate, read-out: Inhibition values (IC50) mTor
[6] = Table 4, read-out: Inhibition values (IC50) mTOR

T5 sequence (P45984 whole entry): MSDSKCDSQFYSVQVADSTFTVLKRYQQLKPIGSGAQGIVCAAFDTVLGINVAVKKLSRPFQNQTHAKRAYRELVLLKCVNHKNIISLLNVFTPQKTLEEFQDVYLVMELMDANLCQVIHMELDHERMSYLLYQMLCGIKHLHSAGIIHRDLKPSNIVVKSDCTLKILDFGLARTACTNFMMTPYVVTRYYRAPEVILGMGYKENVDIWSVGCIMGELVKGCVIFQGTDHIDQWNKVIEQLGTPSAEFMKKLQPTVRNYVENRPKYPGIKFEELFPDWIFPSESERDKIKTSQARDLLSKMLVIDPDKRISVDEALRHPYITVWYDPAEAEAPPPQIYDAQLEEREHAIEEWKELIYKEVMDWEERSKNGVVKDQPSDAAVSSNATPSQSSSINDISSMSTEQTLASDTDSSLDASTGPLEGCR
T1 sequence (O00329 whole entry): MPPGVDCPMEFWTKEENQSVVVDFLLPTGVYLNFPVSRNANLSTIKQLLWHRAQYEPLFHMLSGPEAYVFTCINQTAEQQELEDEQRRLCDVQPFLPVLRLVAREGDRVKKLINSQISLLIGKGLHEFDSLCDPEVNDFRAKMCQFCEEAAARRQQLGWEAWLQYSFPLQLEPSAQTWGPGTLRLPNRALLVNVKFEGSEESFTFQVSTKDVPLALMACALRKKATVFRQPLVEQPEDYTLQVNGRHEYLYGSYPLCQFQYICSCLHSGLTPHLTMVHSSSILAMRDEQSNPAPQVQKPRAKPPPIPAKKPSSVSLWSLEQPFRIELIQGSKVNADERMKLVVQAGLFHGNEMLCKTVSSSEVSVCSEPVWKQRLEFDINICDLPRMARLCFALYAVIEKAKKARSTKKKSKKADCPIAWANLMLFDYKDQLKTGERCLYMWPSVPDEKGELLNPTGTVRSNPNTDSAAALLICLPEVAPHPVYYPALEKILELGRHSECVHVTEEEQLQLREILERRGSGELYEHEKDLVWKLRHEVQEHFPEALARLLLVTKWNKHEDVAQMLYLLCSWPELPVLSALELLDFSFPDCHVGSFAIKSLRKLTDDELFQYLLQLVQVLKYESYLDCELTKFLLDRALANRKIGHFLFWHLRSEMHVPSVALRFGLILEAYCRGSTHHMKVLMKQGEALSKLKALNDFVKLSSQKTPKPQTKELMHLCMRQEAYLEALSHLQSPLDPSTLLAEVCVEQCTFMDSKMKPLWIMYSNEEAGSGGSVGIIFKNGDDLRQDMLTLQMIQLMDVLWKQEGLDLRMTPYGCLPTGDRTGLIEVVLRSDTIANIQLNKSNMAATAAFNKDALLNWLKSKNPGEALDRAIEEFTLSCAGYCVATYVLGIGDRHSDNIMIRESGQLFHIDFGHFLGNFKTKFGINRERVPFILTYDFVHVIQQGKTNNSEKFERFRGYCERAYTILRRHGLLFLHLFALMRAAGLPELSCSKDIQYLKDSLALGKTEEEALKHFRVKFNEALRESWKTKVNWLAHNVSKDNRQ
T1 sequence (P27986 whole entry partner): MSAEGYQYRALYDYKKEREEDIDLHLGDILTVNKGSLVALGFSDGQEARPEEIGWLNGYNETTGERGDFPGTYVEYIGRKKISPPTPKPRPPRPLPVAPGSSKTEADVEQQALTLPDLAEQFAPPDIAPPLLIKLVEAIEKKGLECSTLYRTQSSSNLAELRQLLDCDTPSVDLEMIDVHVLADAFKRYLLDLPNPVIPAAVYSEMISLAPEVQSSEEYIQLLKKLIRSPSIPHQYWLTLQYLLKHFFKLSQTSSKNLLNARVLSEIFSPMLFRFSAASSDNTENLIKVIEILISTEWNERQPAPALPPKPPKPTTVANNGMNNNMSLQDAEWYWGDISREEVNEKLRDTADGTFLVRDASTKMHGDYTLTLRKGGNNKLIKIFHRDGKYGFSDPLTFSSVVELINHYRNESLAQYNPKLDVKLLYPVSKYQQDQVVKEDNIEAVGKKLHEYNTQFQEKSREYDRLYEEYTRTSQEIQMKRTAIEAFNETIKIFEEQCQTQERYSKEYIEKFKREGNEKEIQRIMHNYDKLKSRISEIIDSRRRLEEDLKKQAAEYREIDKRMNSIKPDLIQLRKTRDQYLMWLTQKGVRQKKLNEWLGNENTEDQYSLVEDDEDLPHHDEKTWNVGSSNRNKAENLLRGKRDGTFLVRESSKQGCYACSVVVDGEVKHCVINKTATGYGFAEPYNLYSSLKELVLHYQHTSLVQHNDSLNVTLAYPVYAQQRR
T2 sequence (P42336 whole entry): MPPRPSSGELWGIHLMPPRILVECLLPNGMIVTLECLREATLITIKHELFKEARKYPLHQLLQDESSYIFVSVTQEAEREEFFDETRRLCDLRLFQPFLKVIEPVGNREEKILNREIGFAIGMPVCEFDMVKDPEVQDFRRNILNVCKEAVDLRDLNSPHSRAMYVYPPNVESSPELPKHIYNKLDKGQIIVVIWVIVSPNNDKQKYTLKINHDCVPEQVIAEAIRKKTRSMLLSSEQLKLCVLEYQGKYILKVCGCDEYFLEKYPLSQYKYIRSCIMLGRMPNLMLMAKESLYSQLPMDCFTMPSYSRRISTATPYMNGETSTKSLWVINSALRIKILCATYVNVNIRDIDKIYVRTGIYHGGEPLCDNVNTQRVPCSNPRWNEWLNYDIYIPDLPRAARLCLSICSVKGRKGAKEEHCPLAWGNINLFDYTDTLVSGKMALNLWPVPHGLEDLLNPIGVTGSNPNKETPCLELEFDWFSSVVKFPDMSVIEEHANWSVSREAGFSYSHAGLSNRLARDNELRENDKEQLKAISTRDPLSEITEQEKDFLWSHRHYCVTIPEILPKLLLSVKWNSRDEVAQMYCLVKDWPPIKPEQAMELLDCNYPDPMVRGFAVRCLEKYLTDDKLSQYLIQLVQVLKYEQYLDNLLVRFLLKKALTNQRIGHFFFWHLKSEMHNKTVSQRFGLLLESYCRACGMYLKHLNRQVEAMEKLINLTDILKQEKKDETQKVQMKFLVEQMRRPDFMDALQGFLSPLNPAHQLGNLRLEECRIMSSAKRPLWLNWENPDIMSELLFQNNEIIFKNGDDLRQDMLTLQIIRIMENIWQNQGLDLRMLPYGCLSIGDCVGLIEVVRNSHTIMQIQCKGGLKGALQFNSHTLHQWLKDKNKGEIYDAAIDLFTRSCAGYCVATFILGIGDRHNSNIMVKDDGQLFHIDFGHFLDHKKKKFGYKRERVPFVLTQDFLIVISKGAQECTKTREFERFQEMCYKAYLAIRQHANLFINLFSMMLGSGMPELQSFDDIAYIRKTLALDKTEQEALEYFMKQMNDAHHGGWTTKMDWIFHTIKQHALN
T2 sequence (P27986 whole entry partner): as the sequence (P27986 whole entry partner) above

SMILES | IC50 (PI3K delta (PI3Kd); [3]) [µM] | IC50 (PI3K delta (PI3Kd); [4]) [µM] | IC50 (PI3Kα) [µM] | IC50 (mTOR; [5]) [µM] | IC50 (mTOR; [6]) [µM] | IC50 (kinases (kinome) [1]) [µM] | IC50 (kinases (kinome) [2]) [µM]
CCNC(=O)Nc1ccc(-c2cc(-c3cc(F)ccc3S(C)(=O)=O)nc(N3CCOC[C@@H]3C)n2)cc1 [Example 2, (S)-1-ethyl-3-(4-(6-(5-fluoro-2-(methylsulfonyl)phenyl)-2-(3-methylmorpholino)pyrimidin-4-yl)phenyl)urea] | ≥ 10 | ≥ 10 | ≥ 10 | 0.1 to 1 | 0.1 to 1 |  | 
C[C@H]1COCCN1c1nc(-c2ccc(NC(=O)NC3CC3)cc2)cc(-c2ccccc2S(C)(=O)=O)n1 [Example 4, (S)-1-cyclopropyl-3-(4-(2-(3-methylmorpholino)-6-(2-(methylsulfonyl)phenyl)pyrimidin-4-yl)phenyl)urea] | ≥ 10 | ≥ 10 | ≥ 10 | 0.1 to 1 | 0.1 to 1 | > 10 | > 10
C[C@H]1COCCN1c1cc(-c2ccccc2S(C)(=O)=O)nc(-c2ccc(NC(=O)NC3CC3)cc2)n1 [Example 6, (S)-1-cyclopropyl-3-(4-(4-(3-methylmorpholino)-6-(2-(methylsulfonyl)phenyl)pyrimidin-2-yl)phenyl)urea] | ≥ 10 | ≥ 10 | ≥ 10 | 0.1 to 1 | 0.1 to 1 | > 10 | > 10
CCNC(=O)Nc1ccc(-c2cc(-c3ccccc3C#N)nc(N3CCOC[C@@H]3C)n2)cc1 [Example 8, (S)-1-(4-(6-(2-cyanophenyl)-2-(3-methylmorpholino)pyrimidin-4-yl)phenyl)-3-ethylurea] | ≥ 10 | ≥ 10 |  | 1 to 10 | 1 to 10 | > 10 | > 10
C[C@H]1COCCN1c1cc(-c2ccc(F)nc2)nc(-c2ccc(NC(=O)NC3CC3)cc2)n1 [Example 21, (S)-1-cyclopropyl-3-(4-(4-(6-fluoropyridin-3-yl)-6-(3-methylmorpholino)pyrimidin-2-yl)phenyl)urea] | ≥ 10 | ≥ 10 | ≥ 10 | 0.1 to 1 | 0.1 to 1 |  | 
C[C@H]1COCCN1c1cc(-c2cncc(F)c2)nc(-c2ccc(NC(=O)NC3CC3)cc2)n1 [Example 23, (S)-1-cyclopropyl-3-(4-(4-(5-fluoropyridin-3-yl)-6-(3-methylmorpholino)pyrimidin-2-yl)phenyl)urea] | ≥ 10 | ≥ 10 | ≥ 10 | 0.1 to 1 | 0.1 to 1 |  | 
C[C@H]1COCCN1c1nc(-c2ccc(NC(=O)NC3CC3)cc2)cc(-c2cc(F)ccc2S(C)(=O)=O)n1 [Example 40, (S)-1-cyclopropyl-3-(4-(6-(5-fluoro-2-(methylsulfonyl)phenyl)-2-(3-methylmorpholino)pyrimidin-4-yl)phenyl)urea] | ≥ 10 | ≥ 10 | ≥ 10 | 0.1 to 1 | 0.1 to 1 | > 10 | > 10
C[C@H]1COCCN1c1nc(-c2ccc(NC(=O)NCCO)cc2)cc(-c2cc(F)ccc2S(C)(=O)=O)n1 [Example 41, (S)-1-(4-(6-(5-fluoro-2-(methylsulfonyl)phenyl)-2-(3-methylmorpholino)pyrimidin-4-yl)phenyl)-3-(2-hydroxyethyl)urea] | ≥ 10 | ≥ 10 | ≥ 10 | < 0.1 | < 0.1 |  | 
C[C@H]1COCCN1c1cc(-c2ccccn2)nc(-c2ccc(NC(=O)NC3CC3)cc2)n1 [Example 42, (S)-1-cyclopropyl-3-(4-(4-(3-methylmorpholino)-6-(pyridin-2-yl)pyrimidin-2-yl)phenyl)urea] | ≥ 10 | ≥ 10 | ≥ 10 | 0.1 to 1 | 0.1 to 1 |  | 
C[C@H]1COCCN1c1cc(-c2ccccn2)nc(-c2ccc(NC(=O)NCCO)cc2)n1 [Example 43, (S)-1-(2-hydroxyethyl)-3-(4-(4-(3-methylmorpholino)-6-(pyridin-2-yl)pyrimidin-2-yl)phenyl)urea] | ≥ 10 | ≥ 10 | ≥ 10 | 0.1 to 1 | 0.1 to 1 | > 10 | > 10
C[C@H]1COCCN1c1nc(-c2ccc(NC(=O)NCCF)cc2)cc(-c2cc(F)ccc2S(C)(=O)=O)n1 [Example 44, (S)-1-(4-(6-(5-fluoro-2-(methylsulfonyl)phenyl)-2-(3-methylmorpholino)pyrimidin-4-yl)phenyl)-3-(2-fluoroethyl)urea] | ≥ 10 | ≥ 10 | ≥ 10 | 0.1 to 1 | 0.1 to 1 |  | 
C[C@H]1COCCN1c1nc(-c2ccc(NC(=O)NC3CC3)cc2)cc(-c2cccnc2S(C)(=O)=O)n1 [Example 46, (S)-1-cyclopropyl-3-(4-(2-(3-methylmorpholino)-6-(2-(methylsulfonyl)pyridin-3-yl)pyrimidin-4-yl)phenyl)urea] | ≥ 10 | ≥ 10 | ≥ 10 | 0.1 to 1 | 0.1 to 1 | > 10 | > 10
C[C@H]1COCCN1c1nc(-c2ccc(NC(=O)NCC(F)F)cc2)cc(-c2cc(F)ccc2S(C)(=O)=O)n1 [Example 47, (S)-1-(2,2-difluoroethyl)-3-(4-(6-(5-fluoro-2-(methylsulfonyl)phenyl)-2-(3-methylmorpholino)pyrimidin-4-yl)phenyl)urea] | ≥ 10 | ≥ 10 | ≥ 10 | 0.1 to 1 | 0.1 to 1 |  | 
C[C@H]1COCCN1c1ccnc(-c2ccc(NC(=O)Nc3ccncc3)cc2)n1 [Example 60, (S)-1-(4-(4-(3-methylmorpholino)pyrimidin-2-yl)phenyl)-3-(pyridin-4-yl)urea] | ≥ 10 | ≥ 10 | ≥ 10 | 0.1 to 1 | 0.1 to 1 |  | 
O=C(Nc1ccncc1)Nc1ccc(-c2nccc(N3CC4CCC(C3)O4)n2)cc1 [Example 61, 1-(4-(4-(8-oxa-3-azabicyclo[3.2.1]octan-3-yl)pyrimidin-2-yl)phenyl)-3-(pyridin-4-yl)urea] | ≥ 10 | ≥ 10 | ≥ 10 | 0.1 to 1 | 0.1 to 1 |  | 
CS(=O)(=O)c1ccc(F)cc1-c1cc(-c2ccc(NC(=O)NCCO)cc2)nc(N2CCOCC2)n1 [Example 62, 1-(4-(6-(5-fluoro-2-(methylsulfonyl)phenyl)-2-morpholinopyrimidin-4-yl)phenyl)-3-(2-hydroxyethyl)urea] | ≥ 10 | ≥ 10 | ≥ 10 | 0.1 to 1 | 0.1 to 1 |  | 
C[C@H]1COCCN1c1nc(-c2ccc(NC(=O)NCCCO)cc2)cc(-c2cc(F)ccc2S(C)(=O)=O)n1 [Example 64, (S)-1-(4-(6-(5-fluoro-2-(methylsulfonyl)phenyl)-2-(3-methylmorpholino)pyrimidin-4-yl)phenyl)-3-(3-hydroxypropyl)urea] | ≥ 10 | ≥ 10 | ≥ 10 | 0.1 to 1 | 0.1 to 1 |  | 
C[C@H]1COCCN1c1nc(-c2ccc(NC(=O)N[C@H]3CCC[C@@H]3O)cc2)cc(-c2cc(F)ccc2S(C)(=O)=O)n1 [Example 76, 1-(4-(6-(5-fluoro-2-(methylsulfonyl)phenyl)-2-((S)-3-methylmorpholino)pyrimidin-4-yl)phenyl)-3-((1S,2S)-2-hydroxycyclopentyl)urea] |  | ≥ 10 | ≥ 10 |  | 0.1 to 1 | > 10 | > 10
